This note sets out measurements from PubChem BioAssay (NCI).

Some test systems named below: HOP-18 NSCLC; DLD-1 colon; DMS 114 small cell lung; MCF7 breast; T-47D breast; HS 578T breast; DU-145 prostate; NCI/ADR-RES ovarian; MDA-MB-435; MDA-MB-231 breast.
Common to all, as to experiment: NCI-60 cell line screen, 48 h

Values joined by “and” are separate entries in the source; they are usually repeats but may differ in a detail not shown here. Identical values can stand only once.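 Dose response: 5 concentrations. Exposure: 48 h. Format: 96-well plates. Endpoint: linear interpolation; highest concentration if not reached. GI50 = concentration required for 50% inhibition of growth. TGI is the concentration that stops growth completely.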

Take `CCOP(=O)(Cc1ccc(CP(=O)(OCC)OCC)n1C)OCC`: the TGI in the test on HOP-18 NSCLC, in the test with DLD-1 colon and with DMS 114 small cell lung was greater than 100 µM in each case.
`S=C(N/N=C/c1ccco1)NC12CC3CC(CC(C3)C1)C2`: the TGI in the test with HOP-18 NSCLC, with DLD-1 colon and in the test with DMS 114 small cell lung was greater than 100 µM throughout.
As for `CC1OC(n2cc(F)c(=O)[nH]c2=O)C=CC1O` (centres undefined), the TGI with HOP-18 NSCLC, in the test on DLD-1 colon and with DMS 114 small cell lung was greater than 100 µM in each case.
For `O=C1c2ccccc2C2(Br)C(=O)c3ccccc3C12` (centres undefined), the TGI in the test with HOP-18 NSCLC, in the test on DLD-1 colon and in the test on DMS 114 small cell lung was greater than 100 µM throughout.
Consider `COC(=O)C(C(=O)C(=O)Nc1cccc(OC)c1)c1cnc2ccccc2n1` (centres undefined), for which the TGI in the test on HOP-18 NSCLC, with DLD-1 colon and in the test on DMS 114 small cell lung was greater than 100 µM each time.
With `O=C1CN=C(C[N+](=O)[O-])c2ccccc21`, the TGI in the test with HOP-18 NSCLC, with DLD-1 colon and with DMS 114 small cell lung was greater than 100 µM in each case.
On to `COC(=O)C1=C(C)N(NC(=O)c2ccccc2)C(C)(O)C12CCOC2=O` (centres undefined), for which the TGI with HOP-18 NSCLC, in the test on DLD-1 colon and with DMS 114 small cell lung was greater than 100 µM in each case.
`Cc1ccc(SC(C)/C=C/NNC2=NC(c3ccccc3)C(c3ccccc3)=NN2)cc1` (centres undefined): the TGI with HOP-18 NSCLC, in the test on DLD-1 colon and in the test with DMS 114 small cell lung was greater than 100 µM throughout.
Consider `Cc1ccccc1N1C(=O)/C(=C/c2ccc(N(CCC#N)CCC#N)cc2)N=C1c1cc([N+](=O)[O-])ccc1Cl`, for which the TGI in the test with HOP-18 NSCLC, in the test with DLD-1 colon and in the test on DMS 114 small cell lung was greater than 100 µM each time.
In the case of `O=C(Nc1nc2ncn(CCI)c2c(=O)[nH]1)c1ccccc1`, in the test on HOP-18 NSCLC, the TGI was greater than 100 µM.
The compound `O=[n+]1c2c(n([O-])c3ccccc31)CCCCCCCCCC2` registered a TGI with DLD-1 colon greater than 100 µM.
With `O=C1OC(c2ccccc2)=N/C1=C/C=C/c1ccco1`, the TGI with DLD-1 colon and in the test with DMS 114 small cell lung was greater than 100 µM each time.
As to `CCCCN(CCCC)CC(C(=O)Nc1ccc([N+](=O)[O-])cc1[N+](=O)[O-])/C(C)=N\NC(=S)NN` (centres undefined), the TGI in the test on DLD-1 colon and with DMS 114 small cell lung was greater than 100 µM throughout.
For `CC(C)(C)OC(=O)NCC(=O)OCc1ccccc1`, the TGI in the test with DLD-1 colon and with DMS 114 small cell lung was greater than 100 µM each time.
Regarding `C/C1=C\CC[C@@]2(C)O[C@@H]2[C@H]2OC(=O)[C@@H](CN(C)C)[C@@H]2CC1`, the GI50 in the test with MCF7 breast was 4.96 µM; in the test on T-47D breast, 39.4 µM; in the test on HS 578T breast it was 22.7 µM; in the test on DU-145 prostate it was 4.75 µM; in the test with NCI/ADR-RES ovarian it was 14.7 µM; in the test with MDA-MB-435 it was 7.68 µM. Moreover, the GI50 in the test with MDA-MB-231 breast is 14.2 µM. The TGI was greater than 100 µM with MCF7 breast; greater than 100 µM in the test on T-47D breast; greater than 100 µM in the test on HS 578T breast; 28.1 µM with DU-145 prostate; 59.9 µM in the test on NCI/ADR-RES ovarian; 25.3 µM in the test with MDA-MB-435. This compound registered a TGI in the test on MDA-MB-231 breast of 34.6 µM.
`COc1cc(Nc2cn[nH]c2-c2ccc(Cl)cc2)cc(OC)c1OC`: the GI50 was 3.3 µM in the test with MCF7 breast; 4.56 µM in the test on T-47D breast; 3.88 µM with HS 578T breast; 8.73 µM in the test with DU-145 prostate; 4.42 µM with NCI/ADR-RES ovarian; 1.26 µM with MDA-MB-435. In addition, the GI50 in the test with MDA-MB-231 breast was 6.79 µM. The TGI in the test with MCF7 breast was 53.2 µM; in the test on T-47D breast, 56 µM; in the test with HS 578T breast, 63.1 µM; in the test with DU-145 prostate it was 42 µM; in the test with NCI/ADR-RES ovarian, greater than 36.8 µM; with MDA-MB-435 it was 4.24 µM. The compound further registered a TGI in the test with MDA-MB-231 breast greater than 90.3 µM.
As for `C=C(F)C(=O)N1CCN(c2nc(OC[C@@H]3CCCN3C)nc3c2CCN(c2cccc4cccc(Cl)c24)C3)C[C@@H]1CC#N`, the GI50 was 1.05 µM in the test on MCF7 breast; 1.24 µM in the test with T-47D breast; 1.76 µM in the test on HS 578T breast; 1.04 µM in the test with DU-145 prostate; 0.601 µM in the test on NCI/ADR-RES ovarian; 0.961 µM in the test on MDA-MB-435. For the same compound, the GI50 in the test on MDA-MB-231 breast is 0.752 µM. Besides, the TGI in the test with MCF7 breast came to 2.96 µM; in the test on T-47D breast, 3.07 µM; in the test on HS 578T breast, 4.4 µM; in the test with DU-145 prostate it was 2.87 µM; in the test with NCI/ADR-RES ovarian, 3.19 µM; in the test on MDA-MB-435 it was 2.22 µM. Further, the TGI in the test with MDA-MB-231 breast was determined as 2.23 µM.
`CC(=O)Nc1ccc(C(=O)NN2C(=O)C(Cl)C2c2ccccc2)cc1` (centres undefined) registered a TGI in the test on DLD-1 colon greater than 100 µM.
In the case of `CC(=O)O.CC(=O)O.CC(=O)O.CC(=O)O.CC(=O)O.CC(=O)O.O.[Ti].[Ti]`, in the test on HOP-18 NSCLC, the GI50 was greater than 100 µM and the TGI was greater than 100 µM. In the test on DLD-1 colon, the GI50 is greater than 100 µM and the TGI is greater than 100 µM.
On to `O=C1NC(=Nc2ccccc2)S/C1=C\c1ccc2ncccc2c1`, for which the GI50 is 0.953 µM in the test with MCF7 breast; 12.3 µM in the test with T-47D breast; greater than 11.8 µM in the test on HS 578T breast; greater than 25 µM in the test with DU-145 prostate; greater than 6.88 µM with NCI/ADR-RES ovarian; 0.62 µM in the test on MDA-MB-435. For the same compound, the GI50 in the test on MDA-MB-231 breast is greater than 25 µM. The TGI is greater than 25 µM with MCF7 breast; greater than 25 µM with T-47D breast; greater than 25 µM with HS 578T breast; greater than 25 µM in the test with DU-145 prostate; greater than 25 µM with NCI/ADR-RES ovarian; 1.88 µM with MDA-MB-435. This compound came in with a TGI in the test with MDA-MB-231 breast greater than 25 µM.
As for `Cc1ccc(S(=O)(=O)NCC2CCCCC2=O)cc1` (centres undefined), the TGI in the test on HOP-18 NSCLC and in the test with DMS 114 small cell lung was greater than 100 µM in each case.
Regarding `Cn1c(=O)c2c(nc(Nc3cc(=O)[nH]c(=O)[nH]3)n2Cc2ccccc2)n(C)c1=O`, the GI50 in the test with MCF7 breast, in the test with T-47D breast, in the test with HS 578T breast, with DU-145 prostate, in the test with NCI/ADR-RES ovarian and in the test with MDA-MB-435 was greater than 100 µM in each case. The GI50 in the test on MDA-MB-231 breast is greater than 100 µM. Besides, the TGI in the test on MCF7 breast, in the test with T-47D breast, in the test on HS 578T breast, with DU-145 prostate, in the test with NCI/ADR-RES ovarian and in the test with MDA-MB-435 was greater than 100 µM each time. Further, the TGI in the test on MDA-MB-231 breast is greater than 100 µM.
For `CCOC(=O)Oc1c(OC)cc(C(=O)NC2CCc3cc(OC)c(OC)c(OC)c3-c3ccc(SC)c(=O)cc32)cc1OC` (centres undefined), the GI50 in the test on DLD-1 colon was 0.0223 µM; with DMS 114 small cell lung, less than 0.007 µM. In addition, the TGI in the test on DLD-1 colon is greater than 70 µM; with DMS 114 small cell lung it was 0.0556 µM and < 0.007 µM.
With `COC(=O)/C=C/c1cc(O)c2oc(-c3ccc(O)c(O)c3)c(C(=O)OC)c2c1`, the GI50 in the test on MCF7 breast is 0.286 µM; in the test with T-47D breast, 0.577 µM; with HS 578T breast, 0.405 µM; in the test with DU-145 prostate it was 0.369 µM; with NCI/ADR-RES ovarian, 0.134 µM; in the test with MDA-MB-435, 0.0295 µM. Besides, the GI50 in the test with MDA-MB-231 breast was 0.927 µM. Further, the TGI in the test with MCF7 breast came out at 9.75 µM; with T-47D breast, 9.48 µM; in the test with HS 578T breast, 9.18 µM; in the test on DU-145 prostate, 12 µM; in the test on NCI/ADR-RES ovarian, 6.63 µM; with MDA-MB-435 it was 0.108 µM. The compound also showed a TGI with MDA-MB-231 breast of 15.8 µM.
In the case of `CNCCCn1cc(C2=C(c3cn(C)c4ccccc34)C(=O)NC2=O)c2ccccc21`, the GI50 in the test with MCF7 breast is 2.74 µM; in the test on T-47D breast, 5.66 µM; with HS 578T breast it was 2.06 µM; in the test on DU-145 prostate it was 5.35 µM; in the test with NCI/ADR-RES ovarian it was 14.1 µM; in the test with MDA-MB-435, 3.31 µM. In the test with MDA-MB-231 breast, the GI50 is 5.32 µM. Further, the TGI stood at 6.93 µM in the test on MCF7 breast; 15.1 µM in the test on T-47D breast; 9.64 µM in the test with HS 578T breast; 16.1 µM in the test with DU-145 prostate; 25 µM in the test on NCI/ADR-RES ovarian; 6.9 µM with MDA-MB-435. This compound also displayed a TGI in the test with MDA-MB-231 breast of 15.1 µM.
With `CCCCc1c(OC)cc(O)c2c1C(=O)c1[nH]c(C(=O)O)c(O)c(=O)c1C2=O`, the TGI is greater than 100 µM with MCF7 breast; greater than 100 µM in the test on T-47D breast; 8.14 µM with HS 578T breast; greater than 100 µM in the test with DU-145 prostate; 93.7 µM in the test with NCI/ADR-RES ovarian; greater than 100 µM in the test on MDA-MB-435. Besides, in the test on MDA-MB-231 breast, the TGI is 3.49 µM.
Consider `CC(C)(C)C(=O)OCOP(=O)(OCOC(=O)C(C)(C)C)C1CCCN(O)C1=O` (centres undefined), for which the GI50 in the test on MCF7 breast is 0.338 µM; with T-47D breast, 0.543 µM; in the test with HS 578T breast, 0.314 µM; in the test on DU-145 prostate, 0.831 µM; in the test with NCI/ADR-RES ovarian, 0.434 µM; in the test with MDA-MB-435, 0.955 µM. For the same compound, the GI50 in the test with MDA-MB-231 breast was 0.397 µM. For the same compound, the TGI in the test with MCF7 breast was 3.86 µM; with T-47D breast, 17.8 µM; in the test on HS 578T breast, 8.27 µM; with DU-145 prostate, greater than 100 µM; with NCI/ADR-RES ovarian it was 3.55 µM; in the test on MDA-MB-435, 22.5 µM. Besides, the TGI in the test with MDA-MB-231 breast turned out to be 20 µM.
With `CCOc1nc(-c2ccccc2)cc2c(O)c(-c3nnco3)[nH]c(=O)c12`, the GI50 was 0.507 µM with MCF7 breast; 0.251 µM in the test with T-47D breast; 5.39 µM with HS 578T breast; 5.3 µM in the test on DU-145 prostate; 3.4 µM with NCI/ADR-RES ovarian; 8.48 µM in the test with MDA-MB-435. In addition, the GI50 in the test on MDA-MB-231 breast was 1.66 µM. For the same compound, the TGI with MCF7 breast is greater than 100 µM; in the test on T-47D breast, 9.93 µM; with HS 578T breast, 30.1 µM; in the test with DU-145 prostate, greater than 100 µM; in the test with NCI/ADR-RES ovarian, greater than 100 µM; in the test on MDA-MB-435, greater than 100 µM. The compound further yielded a TGI in the test with MDA-MB-231 breast greater than 29.8 µM.
